Reference: patent US7138361B2, “Herbicidal heterocycles” (E. I. du Pont de Nemours and Company, priority 2000, dated 2006)

Columns and labels:
Format in all cases: in vivo
[1] = test system: Surinam grass (Brachiaria decumbens); test: Test B postemergence; conditions: 13 to 15 days
Procedure, shortened: (§1)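 Pre: seeded pots sprayed, chemical in non-phytotoxic solvent/surfactant mix. Post: plants 2–18 cm, 1–4 leaf, same formulation. Greenhouse 13–15 d; visual % control vs untreated, 0–100 scale.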

[2] = test system: giant foxtail (Setaria faberii); test: Test B postemergence; conditions: 13 to 15 days
Procedure, shortened: as §1

[3] = test system: blackgrass (Alopecurus myosuroides); test: Test B postemergence; conditions: 13 to 15 days
Procedure, shortened: as §1

[4] = test system: cocklebur (Xanthium strumarium); test: Test B postemergence; conditions: 13 to 15 days
Procedure, shortened: as §1

[5] = test system: velvetleaf (Abutilon theophrasti); test: Test B postemergence; conditions: 13 to 15 days
Procedure, shortened: as §1

[6] = test system: lambsquarters (Chenopodium album); test: Test B postemergence; conditions: 13 to 15 days
Procedure, shortened: as §1

[7] = test system: morning glory (Ipomoea hederacea); test: Test B postemergence; conditions: 13 to 15 days
Procedure, shortened: as §1

[8] = test system: crabgrass (Digitaria sanguinalis); test: Test B postemergence; conditions: 13 to 15 days
Procedure, shortened: as §1

[9] = test system: pigweed (Amaranthus retroflexus); test: Test B postemergence; conditions: 13 to 15 days
Procedure, shortened: as §1

[10] = test system: barnyardgrass (Echinochloa crus-galli); test: Test A postemergence, sprayed to runoff; conditions: approx. eleven days
Protocol: (§2) Seeds of barnyardgrass (Echinochloa crus-galli), crabgrass (Digitaria spp.), giant foxtail (Setaria viridis), morning glory (Ipomoea spp.), redroot pigweed (Amaranthus retroflexus) and velvetleaf (Abutilon theophrasti) were planted into a sandy loam soil and treated preemergence by soil drench with test chemicals formulated in a non-phytotoxic solvent mixture which included a surfactant. At the same time, these crop and weed species were also treated postemergence sprayed to runoff with test chemicals formulated in the same manner. Plants ranged in height from two to eighteen cm and were in the one- to two-leaf stage for the postemergence treatment. Treated plants and untreated controls were maintained in a greenhouse for approximately eleven days, after which time all treated plants were compared to untreated controls and visually evaluated for injury. Plant response ratings, summarized in Table A, are based on a 0 to 10 scale where 0 is no effect and 10 is complete control. A dash (-) response means no test results.

[11] = test system: crabgrass (Digitaria spp.); test: Test A postemergence, sprayed to runoff; conditions: approx. eleven days
Protocol: as §2

[12] = test system: giant foxtail (Setaria viridis); test: Test A postemergence, sprayed to runoff; conditions: approx. eleven days
Protocol: as §2

[13] = test system: redroot pigweed (Amaranthus retroflexus); test: Test A postemergence, sprayed to runoff; conditions: approx. eleven days
Protocol: as §2

[14] = test system: Sunflower; test: Test C preemergence; conditions: Rate 62 g/ha, scale 0 to 100
[15] = Rate 125 g/ha, scale 0 (no effect) to 100 (complete control)
[16] = Rate 500 g/ha, scale 0 to 100, 0 is no effect, 100 is complete control

SMILES | Plant response rating, Surinam grass [1, 15] | Plant response rating, Surinam grass [1, 16] | Plant response rating, Foxtail, Giant [2, 15] | Plant response rating, Foxtail, Giant [2, 16] | Plant response rating, Blackgrass [3, 15] | Plant response rating, Blackgrass [3, 16] | Plant response rating, Cocklebur [4, 15] | Plant response rating, Cocklebur [4, 16] | Plant response rating, Velvetleaf [5, 15] | Plant response rating, Velvetleaf [5, 16] | Plant response rating, Lambsquarters [6, 15] | Plant response rating, Lambsquarters [6, 16] | Plant response rating, Morningglory [7, 15] | Plant response rating, Morningglory [7, 16] | Plant response rating, Crabgrass [8, 15] | Plant response rating, Crabgrass [8, 16] | Plant response rating, Pigweed [9, 15] | Plant response rating, Pigweed [9, 16] | Plant response rating (visual injury vs untreated controls) ([10]; Rate 500 g/ha) | Plant response rating (visual injury vs untreated controls) ([10]; Rate 2000 g/ha) | also measured
CC(C)(C)c1ccn(C2SCN(c3cccc(C(F)(F)F)c3)C2=O)n1 (centres unmarked) [Compound 1] | 0 | 0 | 30 | 60 | 0 | 0 | 60 | 80 | 50 | 60 | 90 | 100 | 50 | 100 | 0 | 40 | 90 | 100 | 60 | 90 | Plant response rating (visual injury vs untreated controls) ([11]; Rate 500 g/ha): 10; Plant response rating (visual injury vs untreated controls) ([11]; Rate 2000 g/ha): 10; Plant response rating (visual injury vs untreated controls) ([12]; Rate 500 g/ha): 30; Plant response rating (visual injury vs untreated controls) ([12]; Rate 2000 g/ha): 30; Plant response rating (visual injury vs untreated controls) ([13]; Rate 500 g/ha): 20; Plant response rating (visual injury vs untreated controls) ([13]; Rate 2000 g/ha): 90
CC(C)(C)c1ccn(C2CCN(c3cccc(I)c3)C2=O)n1 (centres unmarked) [Compound 88] | 0 | 0 | 20 | 60 | 0 | 0 | 20 | 30 | 0 | 40 | 100 | 100 | 20 | 70 | 0 | 0 | 90 | 100 | 30 | 80 | Plant response rating (visual injury vs untreated controls) ([11]; Rate 500 g/ha): 20; Plant response rating (visual injury vs untreated controls) ([11]; Rate 2000 g/ha): 40; Plant response rating (visual injury vs untreated controls) ([12]; Rate 500 g/ha): 40; Plant response rating (visual injury vs untreated controls) ([12]; Rate 2000 g/ha): 90; Plant response rating (visual injury vs untreated controls) ([13]; Rate 500 g/ha): 80; Plant response rating (visual injury vs untreated controls) ([13]; Rate 2000 g/ha): 100; Plant response rating, Sunflower [14]: 10
